Results: patent US20240279687A1, “PEPTIDE NUCLEIC ACIDS FOR SPATIOTEMPORAL CONTROL OF CRISPR-CAS BINDING” (Yale University, priority 2021, published 2024)
{Lys} = L-lysine residue attached to the PNA terminus

Assays:
[1] = system: 20mer RNA oligonucleotide (spacer sequence designed to target the BFP gene); assay: UV spectroscopy thermal melting analysis of duplexes; format: binding; conditions: 1 μM each strand, 10 mM sodium phosphate buffer pH 7.4
Method: All samples were prepared by mixing a stoichiometric amount of each strand (1 μM) in 10 mM sodium phosphate buffer at pH 7.4 (Table 8). The samples were pre-annealed at 95° C. for 5 mins and gradually cooled to room temperature prior to the melting experiment. UV melting experiments were performed using a Shimadzu UV-3600 Plus UV-Vis-NIR spectrophotometer equipped with a thermoelectrically controlled multicell holder. UV melting spectra were recorded after every 1° C. temperature change by monitoring the absorbance at 260 nm from 20° C. to 110° C. to 20° C., with a heating/cooling ramp rate of 1.0° C./min. The heating and cooling curves were overlapped to confirm reversible denaturation. All spectra were plotted on Origin 2020 and smoothed using a 20-point adjacent averaging algorithm. The first derivative plots of the melting curves were generated to determine the melting temperature for each duplex.

[2] = system: Cas9 RNP using a sgRNA targeted to the BFP gene; assay: Cas9 RNP editing of BFP reporter gene in K562-BFP cells (BFP fluorescent drop out, flow cytometry); format: cell-based, human; conditions: for inhibitory effect on Cas9-mediated BFP gene disruption and indel formation: 0-250 pmol nucleofected 2 hours prior to Cas9 RNP
Method: (§1) For Cas9 RNP assembly, 50 pmol of sgRNA (IDT, Alt-R CRISPR-Cas9 sgRNA) and 45 pmol of SpCas9 (CPO2, PNA BIO) were incubated at room temperature for 10 minutes in a 5 μL reaction in 1×3.1 Buffer (B7203S, NEB). For nucleofections, 1×10^6 cells, 5 μL Cas9 RNP, and 1 μL of Alt-R Cas9 electroporation enhancer (IDT) were resuspended in 100 μL of Lonza cell line solution (V4XC-2024/V4XC-1024, Lonza) and nucleofected using a Lonza 4D-Nucleofector X unit. Cas9 RNP treated cells were seeded in 2 mL of complete media and incubated for 96 hours prior to harvesting for analysis.
(§2) For PNA pre-treatments, 1×10^6 cells and 1 μL of PNA diluted to desired concentration in water were similarly nucleofected using Lonza cell line kits and 4D-Nucleofector. PNA nucleofected cells were resuspended in 1.25 mL of complete media in 1.5 mL tubes and incubated at 37° C. for 2 hours before Cas9 RNP nucleofection as described above. After Cas9 RNP nucleofection cells were seeded in 2 mL of complete media and incubated for 96 hours prior to harvesting and analysis.
K562 cells were spun down and resuspended in fresh complete media at 300,000 cells/mL 48 hours prior to analysis. Samples for flow cytometry were fixed in complete media with 1% formaldehyde for 15 minutes before spinning down, resuspending in 300 μL PBS, and filtering through a cell strainer capped tube. Samples were analyzed for BFP and GFP fluorescence using a Cytoflex LX instrument (Beckman Coulter) using PacificBlue and FITC lasers, respectively, and quantification and gating was done using FloJo v10 software. Background fluorescent drop out was determined by measurement of mock nucleofected lines in quadruplicate and subtracted from experimental values to determine reported editing frequency.
10^6 stable BFP-expressing K562 cells were nucleofected (Lonza 4D Nucleofector) with a specified dose of PNA or ssDNA oligo (0-250 pmol). Two hours later, all conditions were nucleofected with 45 pmol of purified Cas9 RNP using a sgRNA targeted to the BFP gene. 72 hours later, cells with BFP fluorescent drop out (via Cas9 indel formation) were quantified by flow cytometry (Beckman Coulter—Cytoflex instrument).
In time-course experiments in FIG. 3D, K562 samples were nucleofected with 5 μL RNP reactions with the addition of 100 pmol of ssODN donor in 1 μL of water. RNP nucleofected samples were incubated at 37° C. in complete media before being spun down and nucleofected with 250 pmol of PNA at specified time points. After PNA delivery cells were seeded in 2 mL of complete media and incubated for 96 hours prior to harvesting and analysis.
10^6 stable BFP-expressing K562 cells were nucleofected (Lonza 4D Nucleofector) with specified dose (0-250 pmol, or 250 pmol if unspecified) of specified PNA with sequences homologous to (antispacer) or identical to (cis-spacer) the BFP gRNA spacer sequence. Two hours later, all conditions were nucleofected with 45 pmol of purified Cas9 RNP using a sgRNA targeted to the BFP gene. 72 hours later, cells with BFP fluorescent drop out (via Cas9 indel formation) were quantified by flow cytometry (Beckman Coulter—Cytoflex instrument).
10^6 stable BFP-expressing K562 cells were nucleofected (Lonza 4D Nucleofector) with 45 pmol of purified Cas9 RNP using a sgRNA targeted to the BFP gene. At each specified time point 250 pmol of BFP Anti-protospacer PNA were introduced via nucleofection. For “Cas9 only” condition there was no second PNA nucleofection and for “0 hrs” 250 pmol of PNA was co-nucleofected with Cas9 in a single reaction. After each nucleofection samples were left in fresh media for the duration of the experiment to acquire edits. 72 hours after the “24 hrs” nucleofection, cells for all conditions with BFP fluorescent drop out (via Cas9 indel formation) were quantified by flow cytometry (Beckman Coulter—Cytoflex instrument).

[3] = system: Cas9 RNP using a sgRNA targeted to the HBB gene (R-01); assay: Cas9 RNP editing at HBB in K562 cells (amplicon sequencing); format: cell-based, human
Method: as §1, §2
10^6 stable BFP-expressing K562 cells were nucleofected (Lonza 4D Nucleofector) with a specified dose of BFP cis-protospacer PNA or HBB PNA (0-250 pmol). Two hours later, all conditions were nucleofected with 45 pmol of purified Cas9 RNP using a sgRNA targeted to the BFP gene or targeted to the HBB gene (R-01). 72 hours later, cells with BFP fluorescent drop out (via Cas9 indel formation) were quantified by flow cytometry (Beckman Coulter Cytoflex instrument) for the BFP target (FIG. 3A). For the HBB target (FIG. 3B-3C), 72 hours post-treatment gDNA was extracted (Promega ReliaPrep) and the region of interest was PCR amplified (NEB Phusion). Indel frequency was measured by T7 endonuclease assay (NEB—EnGen Mutation Detection Kit).
(§3) Genomic DNA was purified from 0.5×10^6 cells using Promega ReliaPrep gDNA Tissue Miniprep System (A2052) and eluted in 50 μL of water. Library prep used 100 ng of gDNA input with Ampliseq for Illumina Library Plus kit (20019101, Illumina) and used a custom primer pool designed to amplify a designed panel of genomic targets of interest (Table 9). Libraries were indexed, pooled, and loaded onto a Mid-output (300-cycles, Illumina, FC-420-1004) cartridge for paired-end sequencing on an Illumina Miniseq instrument. FASTQ reads were subjected to quality analysis (Basespace FASTQC) and analyzed for indel frequency using Cas-Analyzer assessment tool (parameters: Comparison range (R)—both ends of full amplicon sequence, Minimum frequency (n)=1). gRNAs used in this study are listed in Table 8, amplicon genomic coordinates listed in Table 9.

[4] = system: Cas9 RNP (FANCF, EMX1, ZSCAN2, CCR5, VEGFA gRNAs); assay: On-target specificity of Cas9 RNP (ratio of on-target to off-target editing rates); format: cell-based, human
Method: as §2, §3
In the case of EMX1 ON and OFF target amplicons, both regions were amplified from 200 ng of purified gDNA by Phusion High-Fidelity Polymerase (NEB, M0530S) and pooled and purified using QIAGEN PCR purification kit (28104, Qiagen). Library prep used 200 ng of purified amplicon input with Illumina DNA Prep kit (20025519, Illumina). EMX1 libraries were similarly indexed, pooled, sequenced, and analysed as above.
For pre-annealed PAM-distal PNA experiments, 50 pmol of sgRNA and 50 pmol of PAM-distal 10mer PNAs were incubated in a thermocycler at 37° C. for 30 minutes in a 5 μL reaction in 1×3.1 Buffer (B7203S, NEB) to allow annealing. PNA annealing to sgRNAs was confirmed by gel shift on 5% polyacrylamide gel. 45 pmol of SpCas9 (CP02, PNA BIO) was then added at room temperature and incubated for 10 minutes to allow RNP formation. Resulting reaction was delivered to 1×10^6 K562 cells by a single nucleofection and treated as described above.

dCas9-VPR / POU5F1 sgRNA = assay: CRISPRa (dCas9-VPR) POU5F1 expression in stable K562 cells, RT-qPCR; format: cell-based, human; conditions: 250 pmol PNA
Method: Stable K562-hEF1α-dCas9-VPR line was established by lentiviral transduction using Edit-R purified lentiviral particles (Horizon Discovery) and blasticidin selection (5 μg/mL, A1113903, Gibco). dCas9-VPR integration was confirmed by western blot with CRISPR-Cas9 antibody (7A9-3A3, Novus). dCas9-VPR expressing line was further transduced with Edit-R CRISPRa human POU5F1 sgRNA purified lentiviral particles (VSGH11902, Horizon Discovery, Table 4) and puromycin selection (2 μg/mL, Gibco).
4×10^6 stable dCas9-VRP/POU5F1 sgRNA expressing K562 cells (generated using lentivirus from Horizon Discovery), or K562 cells, were nucleofected with 250 pmol of specified PNA (non-targeting BFP or POU5F1) using a Lonza 4D nucleofector. At each specified time point 500 μL of cells were removed from each condition flask, spun down, and frozen. RNA was extracted from each pellet using QIAGEN Rneasy Mini Kits and cDNA was generated using Applied Biosystems High Capacity cDNA reverse transcription kit. rtPCR reactions were conducted for each sample using a StepOnePLUS Real-Time PCR System (Applied Biosystems) using Taqman Fast Advanced Master Mix and TaqMan gene specific probes for POU5F1 and GAPDH. Expression relative to the untreated parent K562 line was recorded as fold-change and calculated using the ΔΔCT method.
For RNA extractions 0.5×10^6 K562 cells were spun down, washed once with PBS, homogenized using QIAshredder columns (QIAGEN 79656) and processed using QIAGEN RNeasy mini kits (74106) before eluting in 50 μL of water. Resulting RNA was used as input for high-capacity cDNA Reverse Transcription Kit (Applied Biosystems) and resulting reaction was diluted 1:5 with water. RT-qPCR reactions were conducted in triplicate for each sample using a StepOnePLUS Real-Time PCR System (Applied Biosystems) and Taqman Fast Advanced Master Mix (Applied Biosystems) with TaqMan gene specific probes (Table 8). Expression relative to the untreated K562 parent line was recorded as fold-change and calculated from averaged CT values using the ΔΔCT method.

[5] = 150 pmol dose, three replicates

ATGGCGTGCAGTGCTTCAGC (KKK-ATGGCGTGCAGTGCTTCAGC-KKK; as printed in the source, key not given here) [Anti-protospacer ssDNA oligo, reference compound]
Tm of duplex with RNA spacer sequence [1]: 56 °C | inhibitory effect on Cas9-mediated BFP gene disruption and indel formation [2]: entirely ineffective | inhibitory effect on Cas9-mediated BFP gene disruption and indel formation ([2]; listed as antispacer DNA): no effect

AUGGCGUGCAGUGCUUCAGC (chemistry not given here) [Antispacer RNA (melting study), complementary RNA oligomer (length 20nt), IDT]
Tm of duplex with RNA spacer sequence [1]: 69 °C

CCAACTGCAT (all peptide nucleic acid (PNA); further chemistry not fully specified) [HBB R-01 PAMprox 10 mer PNA, 1 Lysine (K) on either end]
HBB editing ([3]; 50 pmol PNA (45.2% without PNA)): 0.102% | mean fold reduction of HBB target editing [3, 5]: 2,372 fold | total indels detected across 28,104 analyzed amplicons [3, 5]: 6 | fold reduction of HBB target editing ([3]; 1:1 PNA:sgRNA ratio (50 pmol)): 443 fold

GCTCGGACTC (all peptide nucleic acid (PNA); further chemistry not fully specified) [EMX1 PAMdist 10 mer PNA]
specificity ratio versus Cas9 only ([4]; K562, HEK293, and U2OS cell lines, PNA pre-treatment prior to Cas9 RNP nucleofection): significantly increased specificity ratios | specificity versus pre-treatment approaches ([4]; PNA pre-annealed to sgRNA prior to Cas9 RNP formation, delivered as a single complex, K562): further improved specificity

K-ATGGCGTGCA-K (all peptide nucleic acid (PNA), 5' {Lys}, 3' {Lys}) [BFP PAM-proximal PNA]
reduction of BFP editing ([2]; 50 pmol dose): 96.0% | reduction of BFP editing ([2]; 250 pmol dose): 99.7% | fold reduction in editing ([2]; 1:1 PNA:sgRNA molar ratio (50 pmol)): 24.5 fold | fold reduction in editing ([2]; 5:1 PNA:sgRNA ratio (250 pmol)): 342.6 fold

K-GTGCAGTGCT-K (all peptide nucleic acid (PNA), 5' {Lys}, 3' {Lys}) [BFP PAM-middle PNA]
fold reduction in editing ([2]; 5:1 PNA:sgRNA ratio (250 pmol)): 32.4 fold

K-GTGCTTCAGC-K (all peptide nucleic acid (PNA), 5' {Lys}, 3' {Lys}) [BFP PAM-distal PNA]
inhibitory effect on Cas9-mediated BFP gene disruption and indel formation [2]: attenuated effect | reduction of BFP editing ([2]; 50 pmol dose): 10% | reduction of BFP editing ([2]; 250 pmol dose): 32%

KKK-CCACCATTAGGCAAACATCC-KKK (all peptide nucleic acid (PNA), 5' {Lys}-{Lys}-{Lys}, 3' {Lys}-{Lys}-{Lys}) [POU5F1 CRISPRa PNA]
duration of the full effect (dCas9-VPR / POU5F1 sgRNA): 2 to 3 days | effect on CRISPRa upregulated POU5F1 expression (dCas9-VPR / POU5F1 sgRNA): down to the level of the parental K562 line | time after treatment at which the effect appears to dissipate (dCas9-VPR / POU5F1 sgRNA): approximately 5 days | time by which POU5F1 expression dropped to the level of the parent line expression (dCas9-VPR / POU5F1 sgRNA): ≤ 48 h | time by which expression began to return to its upregulated baseline (dCas9-VPR / POU5F1 sgRNA): ≤ 120 h

KKK-GGGTTAAGGCAATAGCAATA-KKK [GFP Non-Targeting PNA]
inhibitory effect on Cas9-mediated BFP gene disruption and indel formation ([2]; listed as heterologous GFP PNA): no effect | inhibitory effect on Cas9-mediated BFP gene disruption and indel formation ([2]; listed as non-targeting (GFP) PNA): entirely ineffective
